Assay results reported in US20240343761A1, “APELINERGIC MACROCYCLES AND USES THEREOF” (priority 2021, published 2024).
Numbered stars: 1 amine (or outer) side, 2 acyl side, 3 side chain; on linkers, the order of the positions; unused ones are H or OH. Bridge positions count the residues as written; N and C are the ends. Square brackets hold non-standard residues; d marks the D form. Peptide text beside a SMILES is read from it. * marks the point of attachment. X5 = O=C([C@H](Cc1cc(C2CCCC2)c(OCc2ccccc2)c(C2CCCC2)c1)N[*:1])[*:2]; X1 = O=C([C@H](Cc1ccc(OCc2ccccc2)c(C2CCCC2)c1)N[*:1])[*:2]; Benzoyl(4-Br) = O=C(c1ccc(Br)cc1)*; hArg = N=C(N)NCCCC[C@H](N)C(=O)O; pGlu = O=C1CC[C@@H](C(=O)O)N1; Nle = CCCC[C@H](N)C(=O)O; Bn = c1ccc(C*)cc1

Assays:
hAPJ receptor [1] = target: T1, hAPJ receptor (Homo sapiens, UniProt P35414); assay: BRET-based β-arrestin2 recruitment assay in HEK293 cells; format: cell-based
T1 construct: expressed in transfected cells; host or cells: HEK293, transient transfection with PEI
T1 sequence (P35414 1-380): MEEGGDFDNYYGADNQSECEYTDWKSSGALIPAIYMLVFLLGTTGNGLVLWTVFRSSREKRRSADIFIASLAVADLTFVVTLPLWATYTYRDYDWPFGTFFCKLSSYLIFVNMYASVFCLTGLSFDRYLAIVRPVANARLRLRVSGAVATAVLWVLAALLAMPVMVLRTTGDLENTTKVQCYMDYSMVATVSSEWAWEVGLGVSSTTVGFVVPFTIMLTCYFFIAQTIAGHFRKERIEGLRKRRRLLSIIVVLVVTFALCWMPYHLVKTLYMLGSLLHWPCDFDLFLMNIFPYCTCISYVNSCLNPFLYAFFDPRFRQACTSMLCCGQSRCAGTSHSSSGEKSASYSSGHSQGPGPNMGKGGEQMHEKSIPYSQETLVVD
Description: (§1) HEK293 cells were cultivated in high glucose DMEM medium having 10% FBS, 100 U/mL penicillin/streptomycin, 2 mM glutamine, and 20 mM HEPES at 37° C. in T175 flasks under humidified chamber at 5% CO2. […] Cells were then washed with phosphate-buffered saline (PBS) and 90 μL Hanks' balanced salt solution was added in each well. Then, cells were stimulated with analogs at concentrations ranging from 10^−5 M to 10^−11 M for 5 min at 37° C. (Gαi1) or for 30 min at room temperature (β-arrestin2). After stimulation, 5 μM of coelanterazine 400A was added to each well and the plate was read using the BRET^2 filter set of a GeniosPro plate reader (Tecan, Austria). The BRET ratio was determined as GFP10em/RlucIIem. Data were plotted and EC50 values were determined using GraphPad Prism 8. Each data point represents the mean±SEM of at least three different experiments each done in triplicate.

hAPJ receptor [2] = target: T1, hAPJ receptor; assay: BRET-based Gαi1 activation assay in HEK293 cells; format: cell-based
Description: as §1

[3] = HEK293, Table V, read-out: ß-arr2 Emax
[4] = HEK293, Table V, read-out: Gαi1 Emax

Compound | Emax (hAPJ receptor [1]; [3]) | Emax (hAPJ receptor [2]; [4]) | EC50 (hAPJ receptor [1]) | further results
CCCC[C@H](NC(=O)[C@@H]1CCCN1C(=O)CNC(=O)[C@H](CCCCN)NC(=O)[C@@H]1CCN(S(=O)(=O)c2ccccc2[N+](=O)[O-])CC=CC[C@H](NC(=O)[C@H](CCCNC(=N)N)NC(=O)[C@@H]2CCC(=O)N2)C(=O)N[C@@H](CCCNC(=N)N)C(=O)N[C@@H](CC(C)C)C(=O)N[C@@H](CO)C(=O)N1)C(=O)N1CCC[C@H]1C(=O)N[C@@H](Cc1ccccc1)C(=O)O [Compound 16, Pyr-R-c[X-R-L-S-Alnb]c-K-G-P-Nle-P-F] |  |  |  | Emax (hAPJ receptor [1]; HEK293, read-out: ß-arr2 Emax): 98%; Emax (hAPJ receptor [2]; HEK293, read-out: Gαi1 Emax): 102%
CCCC[C@H](NC(=O)[C@@H]1CCCN1C(=O)CNC(=O)[C@H](CCCCN)NC(=O)[C@@H]1CCNCC=CC[C@H](NC(=O)[C@H](CCCNC(=N)N)NC(=O)[C@@H]2CCC(=O)N2)C(=O)N[C@@H](CCCNC(=N)N)C(=O)N[C@@H](CC(C)C)C(=O)N[C@@H](CO)C(=O)N1)C(=O)N1CCC[C@H]1C(=O)N[C@@H](Cc1ccccc1)C(=O)O [Compound 18, Pyr-R-c[X-R-L-S-Alb]c-K-G-P-Nle-P-F] | 86% | 100% |  | 
CCCC[C@H](NC(=O)[C@@H]1CCCN1C(=O)CNC(=O)[C@H](CCCCN)NC(=O)[C@@H]1CCN(C)CC=CC[C@H](NC(=O)[C@H](CCCNC(=N)N)NC(=O)[C@@H]2CCC(=O)N2)C(=O)N[C@@H](CCCNC(=N)N)C(=O)N[C@@H](CC(C)C)C(=O)N[C@@H](CO)C(=O)N1)C(=O)N1CCC[C@H]1C(=O)N[C@@H](Cc1ccccc1)C(=O)O [Compound 19, Pyr-R-c[X-R-L-S-Almb]c-K-G-P-Nle-P-F] | 90% | 102% |  | 
CCCC[C@H](NC(=O)[C@@H]1CCCN1C(=O)CNC(=O)[C@H](CCCCN)NC(=O)[C@@H]1CC=CC[C@H](NC(=N)N)C(=O)N[C@@H](CCCNC(=N)N)C(=O)N[C@@H](CC(C)C)C(=O)N[C@@H](CO)C(=O)N1)C(=O)N1CCC[C@H]1C(=O)N[C@@H](Cc1ccccc1)C(=O)O [Compound 23, Guanidine-c[X-R-L-S-X]c-K-G-P-Nle-P-F] | 92% | 103% |  | 
CCCC[C@H](NC(=O)[C@@H]1CCCN1C(=O)CNC(=O)[C@H](CCCCN)NC(=O)[C@@H]1CCN(S(=O)(=O)c2ccccc2[N+](=O)[O-])CC=CC[C@H](N)C(=O)N[C@@H](CCCNC(=N)N)C(=O)N[C@@H](CC(C)C)C(=O)N[C@@H](CO)C(=O)N1)C(=O)N1CCC[C@H]1C(=O)N[C@@H](Cc1ccccc1)C(=O)O [Compound 28, NH2-c[X-R-L-S-Alnb]c-K-G-P-Nle-P-F] | 82% | 106% |  | 
CC(C)C[C@@H]1NC(=O)[C@H](CCCNC(=N)N)NC(=O)[C@@H](N)CC=CC[C@@H](C(=O)N[C@@H](CCCCN)C(=O)NCC(=O)N2CCC[C@H]2C(=O)N[C@H](Cc2ccc(OCc3ccccc3)cc2)C(=O)O)NC(=O)[C@H](CO)NC1=O [Compound 44, NH2-c[X-R-L-S-X]c-K-G-P-(D-TyrOBn)] | 78% | 104% |  | 
CC(C)C[C@@H]1NC(=O)[C@H](CCCNC(=N)N)NC(=O)[C@@H](N)CC=CC[C@@H](C(=O)N[C@@H](CCCCN)C(=O)NCC(=O)N2CCC[C@H]2C(=O)N[C@H](Cc2ccc(O)cc2)C(=O)O)NC(=O)[C@H](CO)NC1=O [Compound 45, NH2-c[X-R-L-S-X]c-K-G-P-(D-Tyr)] | 54% | 100% |  | 
CCCC[C@H](NC(=O)[C@@H]1CCCN1C(=O)[C@@H]1CCCCNC(=O)CC[C@H](NC(=O)[C@H](CC(C)C)NC(=O)[C@H](CCCNC(=N)N)NC(=O)[C@@H]2CCCN2C(=O)[C@H](CCCNC(=N)N)NC(=O)[C@H](CCC(N)=O)NC(=O)[C@H](CCCNC(=N)N)NC(=O)[C@H](CCCNC(=N)N)NC(=O)[C@H](Cc2ccccc2)NC(=O)[C@H](CCCCN)NC(C)=O)C(=O)N[C@@H](Cc2c[nH]cn2)C(=O)N[C@@H](CCCCN)C(=O)N1)C(=O)N1CCC[C@H]1C(=O)N[C@@H](Cc1ccc(OCc2ccccc2)c(C2CCCC2)c1)C(=O)O [Compound 63, Ac-K-F-R-R-Q-R-P-R-L-[E-H-K-K]-P-Nle-P-cypTyrOBn] (Ac-KFRRQRPRLEHKKP[Nle]P[X1]-OH; lactam 10-13) |  |  | 63.6 nM | EC50 (hAPJ receptor [2]): 5.48 nM
CCCC[C@H](NC(=O)[C@@H]1CCCN1C(=O)[C@@H]1CCCCNC(=O)CC[C@H](NC(=O)[C@H](CC(C)C)NC(=O)[C@H](CCCNC(=N)N)NC(=O)[C@@H]2CCCN2C(=O)[C@H](CCCNC(=N)N)NC(=O)[C@H](CCC(N)=O)NC(=O)[C@H](CCCNC(=N)N)NC(=O)[C@H](CCCNC(=N)N)NC(=O)[C@H](Cc2ccccc2)NC(=O)[C@H](CCCCN)NC(C)=O)C(=O)N[C@@H](Cc2c[nH]cn2)C(=O)N[C@@H](CCCCN)C(=O)N1)C(=O)N1CCC[C@H]1C(=O)N[C@@H](Cc1cc(C2CCCC2)c(OCc2ccccc2)c(C2CCCC2)c1)C(=O)O [Compound 65, Ac-K-F-R-R-Q-R-P-R-L-[E-H-K-K]-P-Nle-P-dcypTyrOBn] (Ac-KFRRQRPRLEHKKP[Nle]P[X5]-OH; lactam 10-13) |  |  | > 10000 nM | 
CCCC[C@H](NC(=O)[C@@H]1CCCN1C(=O)[C@@H]1CCCCNC(=O)CC[C@H](NC(=O)[C@H](CC(C)C)NC(=O)[C@H](CCCNC(=N)N)NC(=O)[C@@H]2CCCN2C(=O)[C@H](CCCNC(=N)N)NC(=O)[C@H](CCC(N)=O)NC(=O)[C@H](CCCNC(=N)N)NC(=O)[C@H](CCCNC(=N)N)NC(=O)[C@H](Cc2ccccc2)NC(=O)[C@H](CCCCN)NC(C)=O)C(=O)N[C@@H](Cc2c[nH]cn2)C(=O)N[C@@H](CCCCN)C(=O)N1)C(=O)N1CCC[C@H]1C(=O)N[C@@H](Cc1ccc(OCc2ccccc2)cc1)C(=O)O [Compound 66, Ac-K-F-R-R-Q-R-P-R-L-[E-H-K-K]-P-Nle-P-TyrOBn] (Ac-KFRRQRPRLEHKKP[Nle]PY(Bn)-OH; lactam 10-13) |  |  | 334 nM | 
CCCC[C@H](NC(=O)[C@@H]1CCC(=O)NCCCC[C@H](N)C(=O)N[C@@H](CCCNC(=N)N)C(=O)N[C@@H](CCCNC(=N)N)C(=O)N1)C(=O)N1CCC[C@H]1C(=O)N[C@@H](CC(C)C)C(=O)N[C@@H](Cc1c[nH]cn1)C(=O)N[C@@H](CO)C(=O)N[C@@H](CCCNC(=N)N)C(=O)N[C@H](C(=O)N1CCC[C@H]1C(=O)N[C@@H](Cc1ccccc1)C(=O)N1CCC[C@H]1C(=O)O)C(C)C [Compound 72, c[K-R-R-E]-Nle-P-L-H-S-R-V-P-F-P] (H-KRRE[Nle]PLHSRVPFP-OH; lactam 1-4) |  |  | 47 ± 2 nM | EC50 (hAPJ receptor [2]): 1.7 ± 0.4 nM
CCCC[C@@H]1NC(=O)[C@@H](NC(=O)[C@H](CCCNC(=N)N)NC(=O)[C@H](CCCNC(=N)N)NC(=O)[C@@H]2CCC(=O)N2)CCC(=O)NCCCC[C@@H](C(=O)N[C@@H](Cc2c[nH]cn2)C(=O)N[C@@H](CO)C(=O)N[C@@H](CCCNC(=N)N)C(=O)N[C@H](C(=O)N2CCC[C@H]2C(=O)N[C@@H](Cc2ccccc2)C(=O)N2CCC[C@H]2C(=O)O)C(C)C)NC(=O)[C@@H]2CCCN2C1=O [Compound 75, Pyr-R-R-c[E-Nle-P-K]-H-S-R-V-P-F-P] ([pGlu]RRE[Nle]PKHSRVPFP-OH; lactam 4-7) |  |  | 2020 ± 479 nM | 
CC(C)C[C@@H]1NC(=O)[C@@H]2CCCN2C(=O)[C@@H](NC(=O)[C@H](CO)NC(=O)[C@H](CCCNC(=N)N)NC(=O)[C@H](CCCNC(=N)N)NC(=O)[C@@H]2CCC(=O)N2)CCC(=O)NCCCC[C@@H](C(=O)N[C@@H](CCCNC(=N)N)C(=O)N[C@H](C(=O)N2CCC[C@H]2C(=O)N[C@@H](Cc2ccccc2)C(=O)N2CCC[C@H]2C(=O)O)C(C)C)NC(=O)[C@H](Cc2c[nH]cn2)NC1=O [Compound 77, Pyr-R-R-S-c[E-P-L-H-K]-R-V-P-F-P] |  |  | 247 ± 62 nM | 
CC(C)C[C@@H]1NC(=O)[C@@H]2CCCN2C(=O)[C@@H](NC(=O)[C@H](CO)NC(=O)[C@H](CCCNC(=N)N)NC(=O)[C@H](CCCNC(=N)N)NC(=O)c2ccc(Br)cc2)CCC(=O)NCCCC[C@@H](C(=O)N[C@@H](CCCNC(=N)N)C(=O)N[C@H](C(=O)N2CCC[C@H]2C(=O)N[C@@H](Cc2ccccc2)C(=O)N2CCC[C@H]2C(=O)O)C(C)C)NC(=O)[C@H](Cc2c[nH]cn2)NC1=O [Compound 89, 4BrBz-R-R-S-[E-P-L-H-K]-R-V-P-F-P] ({Benzoyl(4-Br)}-RRSEPLHKRVPFP-OH; lactam 4-8) |  |  | 50 ± 4 nM | 
CC(C)C[C@@H]1NC(=O)[C@@H]2CCCN2C(=O)[C@@H](NC(=O)[C@H](CO)NC(=O)[C@H](CCCNC(=N)N)NC(=O)[C@H](CCCCNC(=N)N)NC(=O)[C@@H]2CCC(=O)N2)CCC(=O)NCCCC[C@@H](C(=O)N[C@@H](CCCNC(=N)N)C(=O)N[C@H](C(=O)N2CCC[C@H]2C(=O)N[C@@H](Cc2ccccc2)C(=O)N2CCC[C@H]2C(=O)O)C(C)C)NC(=O)[C@H](Cc2c[nH]cn2)NC1=O [Compound 90, Pyr-hR-R-S-[E-P-L-H-K]-R-V-P-F-P] |  |  | 394 ± 47 nM | 
CC(C)C[C@@H]1NC(=O)[C@@H]2CCCN2C(=O)[C@@H](NC(=O)[C@H](CO)NC(=O)[C@H](CCCCNC(=N)N)NC(=O)[C@H](CCCNC(=N)N)NC(=O)[C@@H]2CCC(=O)N2)CCC(=O)NCCCC[C@@H](C(=O)N[C@@H](CCCNC(=N)N)C(=O)N[C@H](C(=O)N2CCC[C@H]2C(=O)N[C@@H](Cc2ccccc2)C(=O)N2CCC[C@H]2C(=O)O)C(C)C)NC(=O)[C@H](Cc2c[nH]cn2)NC1=O [Compound 91, Pyr-R-hR-S-[E-P-L-H-K]-R-V-P-F-P] ([pGlu]R[hArg]SEPLHKRVPFP-OH; lactam 5-9) |  |  | 173 ± 20 nM | EC50 (hAPJ receptor [2]): 4.3 ± 1.1 nM
